Laboratory results reported in paper PMC10710035 (Breast cancer research and treatment, 2023).
Where two headings read alike, the source gives them in different places.

Tests used:
[1] = Plasma pharmacokinetics, cycle 1 day 3; type: in vivo, human
[2] = system: early-stage TNBC; conditions: weekly paclitaxel alone, then AC; 95% PI, 9-43%; cited from earlier work
[3] = system: patients; conditions: cited from earlier work
[4] = system: metastatic TNBC; conditions: cited from earlier work
[5] = system: patients; conditions: olaparib with carboplatin; cited from earlier work
[6] = system: patients with advanced solid tumors; type: in vivo
[7] = system: patients with advanced solid tumors
[8] = system: BRCA mutated TNBC; conditions: addition of 120 mg BID to carboplatin plus paclitaxel; BROCADE 2; cited from earlier work
[9] = cisplatin without veliparib, BRCA-like phenotype
[10] = Expansion (n = 12), veliparib 150 mg bid continuous
[11] = Level 1 (n = 3), veliparib 50 mg bid
[12] = Level 2 (n = 3), veliparib 100 mg bid
[13] = Level 3 (n = 7), veliparib 150 mg bid
[14] = Level 4 (n = 5), veliparib 200 mg bid

N.N.O=C([O-])C1(C(=O)[O-])CCC1.[Pt+2] [Carboplatin, carboplatin]
Cmax and AUC0-∞, impact of veliparib dose ([1]; ultrafilterable carboplatin, 20 evaluable patients): not impacted

CC(=O)O[C@H]1C(=O)[C@@]2(C)[C@H]([C@H](OC(=O)c3ccccc3)[C@]3(O)C[C@H](OC(=O)[C@H](O)[C@@H](NC(=O)c4ccccc4)c4ccccc4)C(C)=C1C3(C)C)[C@]1(OC(C)=O)CO[C@@H]1C[C@@H]2O [Paclitaxel, paclitaxel]
exposure (Cmax and AUC0-∞) across veliparib doses ([1]; human, in vivo): not altered | complete pathological response (cPR) rate [2]: 26%

Cn1ncnc1[C@H]1c2n[nH]c(=O)c3cc(F)cc(c23)N[C@@H]1c1ccc(F)cc1 [Talazoparib, talazoparib]
single agent MTD ([3]; single agent): 1000 µg | patients with dose modification ([3]; talazoparib with carboplatin AUC5-6 and paclitaxel 80 mg/m^2 days 1, 8, 15 of 21-day cycles): 87-100%

N.N.[Cl][Pt][Cl] [cisplatin]
PFS at 1 year [4, 9]: 7% | median PFS [4, 9]: 4.3 months | rate of grade 3/4 neutropenia ([4]; in vivo): 19%

O=C(c1cc(Cc2n[nH]c(=O)c3ccccc23)ccc1F)N1CCN(C(=O)C2CC2)CC1 [olaparib]
tolerability with carboplatin [5]: not tolerable

C[C@]1(c2nc3c(C(N)=O)cccc3[nH]2)CCCN1 [veliparib]
clearance ([1]; human, in vivo): 387 mL/min | half-life ([1]; human, in vivo): 4.8 h | AUC0-12 and Cmax versus dose ([1]; in vivo): increase linearly with dose | thrombocytopenia grade 3/4 ([6]; 4 patients of 30, all dose levels and cycles): 13% | anemia grade 3/4 ([6]; 7 patients of 30, all dose levels and cycles): 23% | neutropenia grade 3/4 ([6]; 18 patients of 30, all dose levels and cycles): 60% | relationship between veliparib dose level and incidence or severity of adverse events ([6]; 50-200 mg bid): no clear relationship | ALT increased, any grade ([6]; All Patients (N = 30)): 4 (13%) | AST increased, any grade ([6]; All Patients (N = 30)): 3 (10%) | Anemia, any grade ([6]; All Patients (N = 30)): 20 (67%) | Anemia, grade ≥ 3 ([6]; All Patients (N = 30)): 7 (23%) | Anorexia, any grade ([6]; All Patients (N = 30)): 3 (10%) | Any Grade ≥ 3 AE ([6]; All Patients (N = 30)): 24 (80%) | Any grade AE ([6]; All Patients (N = 30)): 28 (93%) | Bruising, any grade ([6]; All Patients (N = 30)): 2 (7%) | Dehydration, grade ≥ 3 ([6]; All Patients (N = 30)): 1 (3%) | Diarrhea, any grade ([6]; All Patients (N = 30)): 5 (17%) | Dysgeusia, any grade ([6]; All Patients (N = 30)): 2 (7%) | Fatigue, any grade ([6]; All Patients (N = 30)): 18 (60%) | Fatigue, grade ≥ 3 ([6]; All Patients (N = 30)): 1 (3%) | Febrile neutropenia, grade ≥ 3 ([6]; All Patients (N = 30)): 1 (3%) | Headache, any grade ([6]; All Patients (N = 30)): 3 (10%) | Hot flashes, any grade ([6]; All Patients (N = 30)): 4 (13%) | Hyperglycemia, any grade ([6]; All Patients (N = 30)): 2 (7%) | Hypocalcemia, any grade ([6]; All Patients (N = 30)): 3 (10%) | Hyponatremia, any grade ([6]; All Patients (N = 30)): 2 (7%) | Hypophosphatemia, any grade ([6]; All Patients (N = 30)): 4 (13%) | Hypophosphatemia, grade ≥ 3 ([6]; All Patients (N = 30)): 1 (3%) | Lymphocyte count decreased, any grade ([6]; All Patients (N = 30)): 11 (37%) | Lymphocyte count decreased, grade ≥ 3 ([6]; All Patients (N = 30)): 7 (23%) | Myalgia, any grade ([6]; All Patients (N = 30)): 3 (10%) | Nausea, any grade ([6]; All Patients (N = 30)): 16 (53%) | Nausea, grade ≥ 3 ([6]; All Patients (N = 30)): 2 (7%) | Neutrophil count decreased, any grade ([6]; All Patients (N = 30)): 24 (80%) | Neutrophil count decreased, grade ≥ 3 ([6]; All Patients (N = 30)): 18 (60%) | Peripheral sensory neuropathy, any grade ([6]; All Patients (N = 30)): 3 (10%) | Platelet count decreased, any grade ([6]; All Patients (N = 30)): 22 (73%) | Platelet count decreased, grade ≥ 3 ([6]; All Patients (N = 30)): 4 (13%) | Rash maculo-papular, any grade ([6]; All Patients (N = 30)): 2 (7%) | Vomiting, any grade ([6]; All Patients (N = 30)): 4 (13%) | Vomiting, grade ≥ 3 ([6]; All Patients (N = 30)): 1 (3%) | White blood cell decreased, any grade ([6]; All Patients (N = 30)): 22 (73%) | White blood cell decreased, grade ≥ 3 ([6]; All Patients (N = 30)): 15 (50%) | ALT increased, any grade [6, 10]: 3 (25%) | AST increased, any grade [6, 10]: 2 (17%) | Anemia, any grade [6, 10]: 9 (75%) | Anemia, grade ≥ 3 [6, 10]: 3 (25%) | Anorexia, any grade [6, 10]: 2 (17%) | Any Grade ≥ 3 AE [6, 10]: 11 (92%) | Any grade AE [6, 10]: 12 (100%) | Bruising, any grade [6, 10]: 1 (8%) | Dehydration, grade ≥ 3 [6, 10]: 1 (8%) | Diarrhea, any grade [6, 10]: 3 (25%) | Fatigue, any grade [6, 10]: 8 (67%) | Febrile neutropenia, grade ≥ 3 [6, 10]: 1 (8%) | Headache, any grade [6, 10]: 2 (17%) | Hot flashes, any grade [6, 10]: 2 (17%) | Hypocalcemia, any grade [6, 10]: 1 (8%) | Hypophosphatemia, any grade [6, 10]: 3 (25%) | Hypophosphatemia, grade ≥ 3 [6, 10]: 1 (8%) | Lymphocyte count decreased, any grade [6, 10]: 7 (58%) | Lymphocyte count decreased, grade ≥ 3 [6, 10]: 3 (25%) | Myalgia, any grade [6, 10]: 2 (17%) | Nausea, any grade [6, 10]: 10 (83%) | Nausea, grade ≥ 3 [6, 10]: 1 (8%) | Neutrophil count decreased, any grade [6, 10]: 10 (83%) | Neutrophil count decreased, grade ≥ 3 [6, 10]: 6 (50%) | Peripheral sensory neuropathy, any grade [6, 10]: 2 (17%) | Platelet count decreased, any grade [6, 10]: 10 (83%) | Platelet count decreased, grade ≥ 3 [6, 10]: 2 (17%) | Vomiting, any grade [6, 10]: 3 (25%) | White blood cell decreased, any grade [6, 10]: 10 (83%) | White blood cell decreased, grade ≥ 3 [6, 10]: 7 (58%) | Any Grade ≥ 3 AE [6, 11]: 2 (67%) | Any grade AE [6, 11]: 2 (67%) | Neutrophil count decreased, any grade [6, 11]: 2 (67%) | Neutrophil count decreased, grade ≥ 3 [6, 11]: 2 (67%) | Platelet count decreased, any grade [6, 11]: 1 (33%) | Anemia, any grade [6, 12]: 3 (100%) | Any Grade ≥ 3 AE [6, 12]: 2 (67%) | Any grade AE [6, 12]: 3 (100%) | Bruising, any grade [6, 12]: 1 (33%) | Diarrhea, any grade [6, 12]: 2 (67%) | Dysgeusia, any grade [6, 12]: 1 (33%) | Fatigue, any grade [6, 12]: 3 (100%) | Hot flashes, any grade [6, 12]: 1 (33%) | Hyperglycemia, any grade [6, 12]: 1 (33%) | Hypocalcemia, any grade [6, 12]: 1 (33%) | Hyponatremia, any grade [6, 12]: 1 (33%) | Myalgia, any grade [6, 12]: 1 (33%) | Nausea, any grade [6, 12]: 3 (100%) | Neutrophil count decreased, any grade [6, 12]: 3 (100%) | Neutrophil count decreased, grade ≥ 3 [6, 12]: 2 (67%) | Platelet count decreased, any grade [6, 12]: 3 (100%) | Rash maculo-papular, any grade [6, 12]: 1 (33%) | White blood cell decreased, any grade [6, 12]: 3 (100%) | White blood cell decreased, grade ≥ 3 [6, 12]: 1 (33%) | ALT increased, any grade [6, 13]: 1 (14%) | AST increased, any grade [6, 13]: 1 (14%) | Anemia, any grade [6, 13]: 4 (57%) | Anemia, grade ≥ 3 [6, 13]: 2 (29%) | Anorexia, any grade [6, 13]: 1 (14%) | Any Grade ≥ 3 AE [6, 13]: 4 (57%) | Any grade AE [6, 13]: 6 (86%) | Dysgeusia, any grade [6, 13]: 1 (14%) | Fatigue, any grade [6, 13]: 3 (43%) | Headache, any grade [6, 13]: 1 (14%) | Hot flashes, any grade [6, 13]: 1 (14%) | Hyperglycemia, any grade [6, 13]: 1 (14%) | Hypocalcemia, any grade [6, 13]: 1 (14%) | Hyponatremia, any grade [6, 13]: 1 (14%) | Hypophosphatemia, any grade [6, 13]: 1 (14%) | Lymphocyte count decreased, any grade [6, 13]: 2 (29%) | Lymphocyte count decreased, grade ≥ 3 [6, 13]: 2 (29%) | Nausea, any grade [6, 13]: 2 (29%) | Neutrophil count decreased, any grade [6, 13]: 4 (57%) | Neutrophil count decreased, grade ≥ 3 [6, 13]: 3 (43%) | Peripheral sensory neuropathy, any grade [6, 13]: 1 (14%) | Platelet count decreased, any grade [6, 13]: 4 (57%) | Platelet count decreased, grade ≥ 3 [6, 13]: 2 (29%) | Rash maculo-papular, any grade [6, 13]: 1 (14%) | White blood cell decreased, any grade [6, 13]: 4 (57%) | White blood cell decreased, grade ≥ 3 [6, 13]: 2 (29%) | Anemia, any grade [6, 14]: 4 (80%) | Anemia, grade ≥ 3 [6, 14]: 2 (40%) | Any Grade ≥ 3 AE [6, 14]: 5 (100%) | Any grade AE [6, 14]: 5 (100%) | Fatigue, any grade [6, 14]: 4 (80%) | Fatigue, grade ≥ 3 [6, 14]: 1 (20%) | Lymphocyte count decreased, any grade [6, 14]: 2 (40%) | Lymphocyte count decreased, grade ≥ 3 [6, 14]: 2 (40%) | Nausea, any grade [6, 14]: 1 (20%) | Nausea, grade ≥ 3 [6, 14]: 1 (20%) | Neutrophil count decreased, any grade [6, 14]: 5 (100%) | Neutrophil count decreased, grade ≥ 3 [6, 14]: 5 (100%) | Platelet count decreased, any grade [6, 14]: 4 (80%) | Vomiting, any grade [6, 14]: 1 (20%) | Vomiting, grade ≥ 3 [6, 14]: 1 (20%) | White blood cell decreased, any grade [6, 14]: 5 (100%) | White blood cell decreased, grade ≥ 3 [6, 14]: 5 (100%) | came off study due to toxicity ([6]; of the total 30 patients enrolled): 10 patients | PFS at 1 year ([4]; veliparib with cisplatin, BRCA-like phenotype): 20% | rate of grade 3/4 neutropenia ([4]; veliparib with cisplatin): 46% | DLT ([7]; in vivo): without DLT | patients who experienced a DLT ([7]; in vivo): none | MTD ([7]; with weekly carboplatin and paclitaxel, enrollment to DL4 terminated): not formally reached | ORR [8]: improved ORR | PFS benefit [8]: did not translate into a PFS benefit
